# From ChEMBL document CHEMBL5120896, “Hydroanthraquinones from Nigrospora sphaerica and Their Anti-inflammatory Activity Uncovered by Transcriptome Analysis” (J Nat Prod, 2022)
# The source made the active and inactive calls. The calls are words filed in the database; no cut-off is given here.
# Legend:
# RAW264.7 [1] = experiment: Anti-inflammatory activity against mouse RAW264.7 cells assessed as inhibition of LPS-induced NO production at 60 uM pretreated for 1 hr followed by incubation with LPS and measured after 24 hrs by Griess reagent based analysis; type: functional, cell-based; conditions: time 25.0 hrs
# RAW264.7 [2] = experiment: Cytotoxicity against mouse RAW264.7 cells assessed as reduction in cell viability at 80 uM incubated for 24 hrs by MTT assay; type: toxicity, cell-based; conditions: raw264.7, 24 h
# RAW264.7 [3] = experiment: Anti-inflammatory activity against LPS-activated mouse RAW264.7 cells assessed as reduction of NFkappaB p52 gene expression at 7.5 to 30 uM pretreated for 1 hr followed by incubation with LPS for 24 hrs by qRT-PCR analysis; type: functional, cell-based; conditions: dose 7.5-30 µM, time 25.0 hrs
# RAW264.7 [4] = experiment: Downregulation of NF-kappaB expression in LPS-activated mouse RAW264.7 cells at 7.5 to 30 uM pretreated for 1 hr followed by incubation with LPS for 24 hrs by western blot analysis; type: functional, cell-based; conditions: dose 7.5-30 µM, time 25.0 hrs
# RAW264.7 [5] = experiment: Downregulation of phospho-IKKalpha/beta expression in LPS-activated mouse RAW264.7 cells at 7.5 to 30 uM pretreated for 1 hr followed by incubation with LPS for 24 hrs by western blot analysis; type: functional, cell-based; conditions: dose 7.5-30 µM, time 25.0 hrs
# RAW264.7 [6] = experiment: Inhibition of NF-kappaB in mouse RAW264.7 cells assessed as inhibition of LPS-induced NF-kappaB p65 nuclear translocation at 15 to 60 uM pretreated for 1 hr followed by incubation with LPS for 24 hrs by immunofluorescence analysis; type: cell-based; conditions: dose 15-60 µM, time 25.0 hrs
# RAW264.7 [7] = experiment: Anti-inflammatory activity against LPS-activated mouse RAW264.7 cells assessed as reduction of IL-1 beta gene expression at 7.5 to 30 uM pretreated for 1 hr followed by incubation with LPS for 24 hrs by qRT-PCR analysis; type: functional, cell-based; conditions: dose 7.5-30 µM, time 25.0 hrs
# RAW264.7 [8] = experiment: Anti-inflammatory activity against mouse RAW264.7 cells assessed as inhibition of LPS-induced NO production pretreated for 1 hr followed by incubation with LPS and measured after 24 hrs by Griess reagent based analysis; type: functional, cell-based
# Danio rerio = species: Danio rerio; experiment: Anti-inflammatory activity against Zebra fish embryo assessed as inhibition of LPS-induced ROS production at 5 uM pretreated with LPS followed by incubation with drug by fluorescence microscopy; type: functional, organism-based
# RAW264.7 [9] = experiment: Anti-inflammatory activity against LPS-activated mouse RAW264.7 cells assessed as reduction of IL-6 gene expression at 7.5 to 30 uM pretreated for 1 hr followed by incubation with LPS for 24 hrs by qRT-PCR analysis; type: functional, cell-based; conditions: dose 7.5-30 µM, time 25.0 hrs
# RAW264.7 [10] = experiment: Anti-inflammatory activity against mouse RAW264.7 cells assessed as inhibition of LPS-induced ROS production at 10 to 40 uM pretreated for 1 hr followed by incubation with LPS for 24 hrs by DCFH-DA staining based fluorescence microscopy; type: functional, cell-based; conditions: dose 10-40 µM, time 25.0 hrs
# RAW264.7 [11] = experiment: Anti-inflammatory activity against LPS-activated mouse RAW264.7 cells assessed as reduction of TNF-alpha gene expression at 7.5 to 30 uM pretreated for 1 hr followed by incubation with LPS for 24 hrs by qRT-PCR analysis; type: functional, cell-based; conditions: dose 7.5-30 µM, time 25.0 hrs
# RAW264.7 [12] = experiment: Anti-inflammatory activity against mouse RAW264.7 cells assessed as inhibition of LPS-induced ROS production at 15 to 60 uM pretreated for 1 hr followed by incubation with LPS for 24 hrs by DCFH-DA staining based flow cytometry; type: functional, cell-based; conditions: dose 15-60 µM, time 25.0 hrs
# SW-620 = experiment: Cytotoxicity against human SW-620 cells assessed as reduction in metabolically active cells by MTT assay; type: functional, cell-based
SMILES,Activity (RAW264.7 [1]),Activity (RAW264.7 [2]),also measured
COc1cc(O)c2c(c1O)[C@H](OC)[C@H]1C[C@](C)(O)[C@H](O)C[C@@H]1C2=O,Active,,
COc1cc(O)c2c(c1O)[C@H](OC)[C@H]1C[C@](C)(O)[C@H](O)[C@@H](O)[C@H]1C2=O,,Toxic,
COc1cc(O)c2c(c1O)[C@H](O)[C@H]1C[C@](C)(O)[C@H](O)C[C@H]1C2=O,Active,,
COc1cc(O)c2c(c1O)[C@H](O)[C@H]1C[C@](C)(O)[C@H](O)[C@@H](O)[C@H]1C2=O,Active,,Activity (RAW264.7 [3]): Active; inhibition (RAW264.7 [4]): Active; inhibition (RAW264.7 [5]): Active; inhibition (RAW264.7 [6]): Active; Activity (RAW264.7 [7]): Active; IC50 (RAW264.7 [8]): 7.5 µM; Activity (Danio rerio): Active; Activity (RAW264.7 [9]): Active; Activity (RAW264.7 [10]): Active; Activity (RAW264.7 [11]): Active; Activity (RAW264.7 [12]): Active
COc1cc(O)c2c(c1O)C(=O)[C@H]1C[C@](C)(O)[C@H](O)[C@@H](O)[C@@H]1C2=O,Active,,
COC1=CC(=O)c2c(cc3c(c2O)[C@H](O)[C@@H](O)[C@@](C)(O)C3)C1=O,,Toxic,IC50 (SW-620): 13.7 µM
COc1cc(O)c2c(c1O)[C@H](O)[C@H]1C[C@](C)(O)C[C@@H](O)[C@@H]1C2=O,,Toxic,
COc1cc(O)c2c(c1N)C(=O)C1=C(C[C@@H](O)[C@@](C)(O)C1)C2=O,Active,,
COc1cc(O)c2c(c1O)[C@@H](OC)[C@H]1C[C@](C)(O)[C@H](O)C[C@@H]1C2=O,Active,,
COc1cc(O)c2c(c1O)[C@H](OC)[C@H]1C[C@](C)(O)[C@H](O)[C@@H](O)[C@@H]1C2=O,Active,,
C[C@]1(O)C[C@@]2(O)[C@H](C[C@H]1O)C(=O)c1c(O)ccc(O)c1[C@@H]2O,Active,,
COc1cc(O)c2c(c1O)[C@H]1O[C@]3(C)C[C@H]1[C@@H](C[C@@H]3O)C2=O,,Toxic,
COc1cc(O)c2c(c1O)[C@H](O)[C@H]1C[C@](C)(O)[C@H](O)[C@@H](O)[C@@H]1C2=O [9ALPHA-HYDROXYHALOROSELLINIA A],,Toxic,
COc1cc(O)c2c(c1O)C(=O)C1=C(C[C@@H](O)[C@@](C)(O)C1)C2=O,,Toxic,
COc1cc(O)c2c(c1O)C(O)C1C[C@](C)(O)[C@H](O)CC1C2=O (stereo partly drawn),,Toxic,
COc1cc(O)c2c(c1O)[C@@H](OC)[C@H]1C[C@](C)(O)[C@H](O)[C@@H](O)[C@@H]1C2=O,Active,,
